Data as given in paper PMC4922860, “Atypical calcium regulation of the PKD2-L1 polycystin ion channel” (eLife, 2016).
Residue numbers refer to the chain shown, from its start.

Tests used:
Format in all cases: cell-based
[1] = target: T1, human PKD2-L1 (Wt), homomeric channel (Homo sapiens, UniProt Q9P0L9); experiment: whole-cell patch clamp, current block, voltage ramps, Hill fit
T1 construct: gene PKD2L1; full-length isoform 1 in pTracer CMV2, transiently transfected HEK 293T cells; homotetramer; whole-cell patch clamp
T1 sequence (Q9P0L9 1-805): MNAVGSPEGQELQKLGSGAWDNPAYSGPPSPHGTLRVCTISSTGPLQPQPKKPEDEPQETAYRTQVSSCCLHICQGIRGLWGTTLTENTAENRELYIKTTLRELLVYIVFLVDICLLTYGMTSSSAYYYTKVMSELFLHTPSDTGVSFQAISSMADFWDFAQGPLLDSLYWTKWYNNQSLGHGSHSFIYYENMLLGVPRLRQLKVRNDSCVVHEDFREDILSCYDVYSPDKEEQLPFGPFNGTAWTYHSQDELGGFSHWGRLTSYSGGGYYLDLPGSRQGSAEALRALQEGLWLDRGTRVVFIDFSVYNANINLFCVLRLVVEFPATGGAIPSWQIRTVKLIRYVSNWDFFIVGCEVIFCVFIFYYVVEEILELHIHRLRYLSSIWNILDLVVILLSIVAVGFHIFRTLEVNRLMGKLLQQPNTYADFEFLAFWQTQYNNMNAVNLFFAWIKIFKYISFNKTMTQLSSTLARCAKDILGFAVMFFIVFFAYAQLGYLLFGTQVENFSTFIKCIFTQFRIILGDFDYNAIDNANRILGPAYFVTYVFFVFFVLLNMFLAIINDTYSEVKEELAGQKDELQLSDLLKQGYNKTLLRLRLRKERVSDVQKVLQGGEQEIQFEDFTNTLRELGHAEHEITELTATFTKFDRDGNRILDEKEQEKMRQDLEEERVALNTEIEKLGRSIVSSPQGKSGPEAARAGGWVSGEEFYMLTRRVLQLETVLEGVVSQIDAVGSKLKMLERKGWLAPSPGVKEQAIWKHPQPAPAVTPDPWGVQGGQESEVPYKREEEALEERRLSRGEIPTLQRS

[2] = target: T2, human PKD2-L1, homomeric channel (Homo sapiens, UniProt Q9P0L9, D523N); experiment: as above
T2 construct: gene PKD2L1; full-length isoform 1 in pTracer CMV2, transiently transfected HEK 293T cells; homotetramer; whole-cell patch clamp
T2 sequence (Q9P0L9 1-805 D523N): T1 sequence (Q9P0L9 1-805) with D523N

[3] = target: T2, human PKD2-L1, homomeric channel; experiment: whole-cell patch clamp, current potentiation, voltage ramps
[4] = target: T1, human PKD2-L1 (Wt), homomeric channel; experiment: as above

| IC50 [1] [µM] | IC50 [2] [µM] | EC50 [3] [µM] | EC50 [4] [µM] | Compound |
| --- | --- | --- | --- | --- |
| 31 ± 5 | 23 ± 3 |  |  | CCCCOc1cc(C(=O)NCCN(CC)CC)c2ccccc2n1 [dibucaine] |
|  |  | 9 ± 7 | 2.6 ± 6 | Clc1ccc(C(c2ccc(Cl)cc2)n2cc[n+](CC(OCc3ccc(Cl)cc3Cl)c3ccc(Cl)cc3Cl)c2)cc1 (stereo not shown) [calmidazolium] |
